According to patent US20250276964A1 (Novartis AG, priority 2021, published 2025):
Counter-ions that a name gives are not always drawn.

Molecular target: T1, WIZ (Homo sapiens, UniProt O95785+Q96SW2)
T1 construct: expressed in transfected cells
Assay: Quantification of WIZ protein levels in HiBit tag fusion protein assay (WIZ HiBit assay in 293T cells)
Format: cell-based
Conditions: for % degradation of WIZ (100-Amax) / Dmax at 25 µM: 100 minus Amax at 25 uM; for WIZ Amax / remaining activity at 25 µM: DMSO-normalized, curve-fitted percentage of WIZ-HiBit remaining at 25 uM; for DC50: WIZ HiBit assay in 293T cells, 10-point, 5-fold dilution, highest concentration 25 μM, about 18 hours, read-out: WIZ AC50; for Dmax at 25 µM / remaining activity at 25 µM: HEK-293T; for Dmax at 25 µM: read-out: % degradation of WIZ (100-Amax); for remaining activity at 25 µM: read-out: WIZ Amax
Method: The HiBit system from Promega was used to develop high-throughput and quantitative assays to measure changes in WIZ protein levels in response to compounds. The HiBit tag was derived from a split Nanoluciferase and has the following protein sequence: […] (SEQ ID NO: 1). The complementary fragment of Nanoluciferase (known as LgBit, from Promega), was added to the HiBit tag to form an active Nanoluciferase enzyme whose activity can be precisely measured. In this way, the levels of a fusion protein with the HiBit tag can be quantified in cell lysates.
Lentiviral vectors, based on the Invitrogen™ pLenti6.2/V5 DEST backbone were constructed that places the HiBit tag upstream of WIZ and expressed the fusion protein from an HSVTK promotor.
To ensure moderate and consistent expression of the HiBit-WIZ fusion protein across all cells in the population, stable cell lines were constructed from cells harboring a single copy of the construct. Lentivirus packaged with the constructs were made using the ViraPower™kit from Invitrogen™. 293T cells from ATCC (Catalog number: CRL-3216), were infected with the virus at low multiplicity of infection and selected by 5 μg/mL blasticidin in culture media for 2 weeks.
The levels of HiBit-WIZ tagged fusion proteins in compound-treated cell lines were measured as follows:
On day 1, cells were diluted to 1.0×10^6 cells/ml in normal growth medium. 20 μL of cell suspension were plated in each well of a solid white 384-well plate. Plates were incubated overnight in a 37° C. and 5% CO2 humidified tissue culture incubator.
On day 2, serial dilutions of compounds were made in 384-well plates. Compound plates were set up with DMSO in columns 1, 2, 23, 24, and 10-point compound dilution series in column 3-12 and column 13-22. 10 mM stock solution of compound were placed into column 3 or 13 and a 1:5 serial dilution was carried out until there was a 10-point dilution series per compound. 50 nL of diluted compounds were transferred into the plated cells by Echo® (Labcyte) acoustic transfer. The highest concentration of compound was 25 μM. Plates were incubated overnight (about 18 hours) in a 37° C. and 5% CO2 humidified tissue culture incubator.
On day 3, plates were removed from the incubator and allowed to equilibrate at room temperature for 60 minutes. HiBit substrate (Nano-Glo® HiBit Lytic Detection System, Promega Catalogue number: N3050) was added as described by the manufacturers protocols. Plates were incubated at room temperature for 30 minutes and luminescence was read using an EnVision® reader (PerkinElmer®). Data was analyzed and visualized using the Spotfire® software package.
WIZ Amax reflects the DMSO-normalized, curve-fitted percentage of WIZ-HiBit remaining at 25 uM. It was calculated by normalizing DMSO controls to 100%, parametric curve fitting of the dose response data (10-point, 5-fold), followed by calculation of response at 25 uM using the fitted equation (nd=not determined).

T1 sequence (O95785 whole entry): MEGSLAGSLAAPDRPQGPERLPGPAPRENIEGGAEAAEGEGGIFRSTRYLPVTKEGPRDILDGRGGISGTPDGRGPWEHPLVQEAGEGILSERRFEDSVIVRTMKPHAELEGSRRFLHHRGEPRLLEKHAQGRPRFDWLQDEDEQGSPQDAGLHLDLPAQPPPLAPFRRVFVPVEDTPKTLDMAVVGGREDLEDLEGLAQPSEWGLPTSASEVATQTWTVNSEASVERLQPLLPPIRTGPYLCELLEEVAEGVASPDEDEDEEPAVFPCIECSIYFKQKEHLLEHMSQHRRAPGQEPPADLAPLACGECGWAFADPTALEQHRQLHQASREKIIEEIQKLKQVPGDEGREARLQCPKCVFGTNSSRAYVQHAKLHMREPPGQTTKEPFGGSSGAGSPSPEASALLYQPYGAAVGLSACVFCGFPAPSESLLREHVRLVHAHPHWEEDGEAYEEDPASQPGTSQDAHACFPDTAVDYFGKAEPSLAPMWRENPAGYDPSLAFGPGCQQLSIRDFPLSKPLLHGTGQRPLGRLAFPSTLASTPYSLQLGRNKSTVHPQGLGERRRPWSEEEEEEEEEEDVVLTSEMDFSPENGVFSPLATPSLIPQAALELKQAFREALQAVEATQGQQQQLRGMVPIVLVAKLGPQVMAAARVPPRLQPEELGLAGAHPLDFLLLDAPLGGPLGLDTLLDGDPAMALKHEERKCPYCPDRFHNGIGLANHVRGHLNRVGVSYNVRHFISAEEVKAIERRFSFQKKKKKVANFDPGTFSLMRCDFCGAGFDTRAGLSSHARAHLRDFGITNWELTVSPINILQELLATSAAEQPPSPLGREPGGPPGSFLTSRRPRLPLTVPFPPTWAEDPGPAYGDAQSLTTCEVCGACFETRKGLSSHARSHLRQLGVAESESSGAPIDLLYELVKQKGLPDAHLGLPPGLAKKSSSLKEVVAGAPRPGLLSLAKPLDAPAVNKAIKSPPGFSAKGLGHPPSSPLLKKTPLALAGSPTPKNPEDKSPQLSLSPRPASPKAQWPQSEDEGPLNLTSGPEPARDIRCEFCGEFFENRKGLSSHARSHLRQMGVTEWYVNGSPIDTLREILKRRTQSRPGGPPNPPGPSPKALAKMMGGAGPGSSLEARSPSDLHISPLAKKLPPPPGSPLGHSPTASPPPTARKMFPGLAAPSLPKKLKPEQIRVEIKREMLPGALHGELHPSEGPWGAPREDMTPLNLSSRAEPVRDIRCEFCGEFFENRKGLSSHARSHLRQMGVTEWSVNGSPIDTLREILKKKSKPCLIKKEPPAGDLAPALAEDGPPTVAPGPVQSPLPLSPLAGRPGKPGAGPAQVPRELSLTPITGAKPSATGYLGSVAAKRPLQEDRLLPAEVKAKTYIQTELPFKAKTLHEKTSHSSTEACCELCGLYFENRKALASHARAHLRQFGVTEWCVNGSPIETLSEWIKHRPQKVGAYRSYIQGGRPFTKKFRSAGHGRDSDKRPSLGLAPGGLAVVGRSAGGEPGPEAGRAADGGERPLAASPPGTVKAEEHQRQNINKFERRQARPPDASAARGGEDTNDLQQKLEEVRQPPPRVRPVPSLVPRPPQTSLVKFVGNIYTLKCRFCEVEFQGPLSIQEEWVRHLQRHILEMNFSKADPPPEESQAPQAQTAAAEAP
T1 sequence (Q96SW2 whole entry): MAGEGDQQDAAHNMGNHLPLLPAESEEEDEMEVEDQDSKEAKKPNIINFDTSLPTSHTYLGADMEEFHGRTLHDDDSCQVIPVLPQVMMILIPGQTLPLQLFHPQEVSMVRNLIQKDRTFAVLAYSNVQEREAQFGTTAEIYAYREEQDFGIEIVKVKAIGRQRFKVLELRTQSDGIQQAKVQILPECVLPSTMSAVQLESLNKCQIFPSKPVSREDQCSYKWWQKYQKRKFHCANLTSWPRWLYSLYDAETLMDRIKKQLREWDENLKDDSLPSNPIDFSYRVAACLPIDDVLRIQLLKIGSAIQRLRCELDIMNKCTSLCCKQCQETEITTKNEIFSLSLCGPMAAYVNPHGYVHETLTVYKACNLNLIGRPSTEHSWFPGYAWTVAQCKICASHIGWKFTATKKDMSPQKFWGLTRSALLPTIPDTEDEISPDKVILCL
T1 sequence (Q16531 whole entry partner): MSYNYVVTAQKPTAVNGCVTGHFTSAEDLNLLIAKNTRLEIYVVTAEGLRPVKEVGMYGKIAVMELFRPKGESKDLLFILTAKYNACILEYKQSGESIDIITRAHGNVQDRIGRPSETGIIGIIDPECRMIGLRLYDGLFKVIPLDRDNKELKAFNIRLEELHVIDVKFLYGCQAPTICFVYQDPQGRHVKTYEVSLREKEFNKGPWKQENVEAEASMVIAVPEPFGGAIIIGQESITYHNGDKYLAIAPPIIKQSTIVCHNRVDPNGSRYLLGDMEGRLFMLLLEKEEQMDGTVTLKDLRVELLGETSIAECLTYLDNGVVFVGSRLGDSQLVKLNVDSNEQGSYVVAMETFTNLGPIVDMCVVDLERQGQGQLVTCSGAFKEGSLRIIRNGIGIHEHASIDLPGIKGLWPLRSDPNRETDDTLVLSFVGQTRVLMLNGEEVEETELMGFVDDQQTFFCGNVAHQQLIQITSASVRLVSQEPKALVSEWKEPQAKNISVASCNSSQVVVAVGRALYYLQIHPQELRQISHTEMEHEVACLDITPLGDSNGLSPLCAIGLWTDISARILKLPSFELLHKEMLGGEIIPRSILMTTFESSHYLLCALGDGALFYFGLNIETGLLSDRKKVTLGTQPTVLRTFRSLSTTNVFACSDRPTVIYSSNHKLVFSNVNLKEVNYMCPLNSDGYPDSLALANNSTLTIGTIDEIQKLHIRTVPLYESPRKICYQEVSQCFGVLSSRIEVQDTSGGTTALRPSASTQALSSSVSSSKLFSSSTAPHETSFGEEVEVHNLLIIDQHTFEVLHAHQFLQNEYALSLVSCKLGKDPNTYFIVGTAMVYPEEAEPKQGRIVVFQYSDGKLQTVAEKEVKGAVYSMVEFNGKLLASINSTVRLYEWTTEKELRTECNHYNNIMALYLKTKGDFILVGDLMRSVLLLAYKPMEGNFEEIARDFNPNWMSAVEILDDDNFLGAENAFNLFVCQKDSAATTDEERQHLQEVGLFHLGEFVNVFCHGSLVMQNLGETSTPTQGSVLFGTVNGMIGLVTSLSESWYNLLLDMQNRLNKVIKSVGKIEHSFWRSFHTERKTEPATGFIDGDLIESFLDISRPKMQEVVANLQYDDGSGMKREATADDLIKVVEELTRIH

| SMILES | % degradation of WIZ (100-Amax) | WIZ Amax | DC50 | Dmax at 25 µM | remaining activity at 25 µM |
| --- | --- | --- | --- | --- | --- |
| CC(C)(C)OC(=O)N1[C@@H]2CC[C@H]1CC(Cc1ccc3onc(N4CCC(=O)NC4=O)c3c1)C2 (single isomer, unassigned) [Example 54] | 92% | 8% | 0.196 µM | – | – |
| CC(C)(C)OC(=O)N1[C@@H]2CC[C@H]1CC(Cc1ccc3onc(N4CCC(=O)NC4=O)c3c1)C2 (single isomer, unassigned) [Example 55] | 70% | 30% | 3.2 µM | – | – |
| O=C1CCN(c2noc3ccc(CN4CC5CCC4CN5CC4CCOCC4)cc23)C(=O)N1 (single isomer, unassigned) [Example 121, 1-(5-((5-((tetrahydro-2H-pyran-4-yl)methyl)-2,5-diazabicyclo[2.2.2]octan-2-yl)methyl)benzo[d]isoxazol-3-yl)dihydropyrimidine-2,4(1H,3H)-dione] | – | – | 0.317 µM | 86% | 14% |
| O=C1CCN(c2noc3ccc(CN4CC5CCC4CN5CC4CCOCC4)cc23)C(=O)N1 (single isomer, unassigned) [Example 122, 1-(5-((5-((tetrahydro-2H-pyran-4-yl)methyl)-2,5-diazabicyclo[2.2.2]octan-2-yl)methyl)benzo[d]isoxazol-3-yl)dihydropyrimidine-2,4(1H,3H)-dione] | 91% | 9% | 0.044 µM | – | – |
| CN1CC2CCC1CN2Cc1ccc2onc(N3CCC(=O)NC3=O)c2c1 (single isomer, unassigned) [Example 123, 1-(5-((5-methyl-2,5-diazabicyclo[2.2.2]octan-2-yl)methyl)benzo[d]isoxazol-3-yl)dihydropyrimidine-2,4(1H,3H)-dione] | – | – | 0.059 µM | 89% | 11% |
| CN1CC2CCC1CN2Cc1ccc2onc(N3CCC(=O)NC3=O)c2c1 (single isomer, unassigned) [Example 124, 1-(5-((5-methyl-2,5-diazabicyclo[2.2.2]octan-2-yl)methyl)benzo[d]isoxazol-3-yl)dihydropyrimidine-2,4(1H,3H)-dione] | 85% | 15% | 0.52 µM | – | – |
| CS(=O)(=O)N1CC2CCC1CN2Cc1ccc2onc(N3CCC(=O)NC3=O)c2c1 (single isomer, unassigned) [Example 125, 1-(5-((5-(methylsulfonyl)-2,5-diazabicyclo[2.2.2]octan-2-yl)methyl)benzo[d]isoxazol-3-yl)dihydropyrimidine-2,4(1H,3H)-dione] | – | – | 0.12 µM | 85% | 15% |
| CS(=O)(=O)N1CC2CCC1CN2Cc1ccc2onc(N3CCC(=O)NC3=O)c2c1 (single isomer, unassigned) [Example 126, 1-(5-((5-(methylsulfonyl)-2,5-diazabicyclo[2.2.2]octan-2-yl)methyl)benzo[d]isoxazol-3-yl)dihydropyrimidine-2,4(1H,3H)-dione] | 83% | 17% | 0.134 µM | – | – |
| O=C1CCN(c2noc3ccc(CC4CCN(CC5CCCCC5)CC4)cc23)C(=O)N1 [Example 1, 1-(5-((1-(cyclohexylmethyl)piperidin-4-yl)methyl)benzo[d]isoxazol-3-yl)dihydropyrimidine-2,4(1H,3H)-dione] | – | – | 0.0072 µM | 91% | 9% |
| CC(C)(C)OC(=O)N1CCC(Cc2ccc3onc(N4CCC(=O)NC4=O)c3c2)CC1 [Example 1a, tert-butyl 4-((3-(2,4-dioxotetrahydropyrimidin-1(2H)-yl)benzo[d]isoxazol-5-yl)methyl)piperidine-1-carboxylate] | – | – | 0.16 µM | 85% | 15% |
| O=C1CCN(c2noc3ccc(CC4CCNCC4)cc23)C(=O)N1 [Example 1b, 1-(5-(piperidin-4-ylmethyl)benzo[d]isoxazol-3-yl)dihydropyrimidine-2,4(1H,3H)-dione hydrochloride] | – | – | 0.21 µM | 88% | 12% |
| O=C1CCN(c2noc3ccc(CC4CCN(CC5CCC(F)(F)CC5)CC4)cc23)C(=O)N1 [Example 2, 1-(5-((1-((4,4-difluorocyclohexyl)methyl)piperidin-4-yl)methyl)benzo[d]isoxazol-3-yl)dihydropyrimidine-2,4(1H,3H)-dione] | – | – | 0.0012 µM | 92% | 8% |
| O=C1CCN(c2noc3ccc(CC4CCN(CC5CCC5)CC4)cc23)C(=O)N1 [Example 3, 1-(5-((1-(cyclobutylmethyl)piperidin-4-yl)methyl)benzo[d]isoxazol-3-yl)dihydropyrimidine-2,4(1H,3H)-dione] | – | – | 0.01 µM | 92% | 8% |
| O=C1CCN(c2noc3ccc(CC4CCN(Cc5cccnc5)CC4)cc23)C(=O)N1 [Example 4, 1-(5-((1-(pyridin-3-ylmethyl)piperidin-4-yl)methyl)benzo[d]isoxazol-3-yl)dihydropyrimidine-2,4(1H,3H)-dione] | – | – | 0.033 µM | 92% | 8% |
| CC(C)CN1CCC(Cc2ccc3onc(N4CCC(=O)NC4=O)c3c2)CC1 [Example 5, 1-(5-((1-isobutylpiperidin-4-yl)methyl)benzo[d]isoxazol-3-yl)dihydropyrimidine-2,4(1H,3H)-dione] | – | – | 0.014 µM | 91% | 9% |
| O=C1CCN(c2noc3ccc(CC4CCN(CC5CC5)CC4)cc23)C(=O)N1 [Example 6, 1-(5-((1-(cyclopropylmethyl)piperidin-4-yl)methyl)benzo[d]isoxazol-3-yl)dihydropyrimidine-2,4(1H,3H)-dione] | – | – | 0.03 µM | 91% | 9% |
| O=C1CCN(c2noc3ccc(CC4CCN(Cc5cccc(F)c5)CC4)cc23)C(=O)N1 [Example 7, 1-(5-((1-(3-fluorobenzyl)piperidin-4-yl)methyl)benzo[d]isoxazol-3-yl)dihydropyrimidine-2,4(1H,3H)-dione] | – | – | 0.018 µM | 91% | 9% |
| CCN1CCC(Cc2ccc3onc(N4CCC(=O)NC4=O)c3c2)CC1 [Example 8, 1-(5-((1-ethylpiperidin-4-yl)methyl)benzo[d]isoxazol-3-yl)dihydropyrimidine-2,4(1H,3H)-dione] | – | – | 0.016 µM | 91% | 9% |
| O=C1CCN(c2noc3ccc(CC4CCN(Cc5ccccc5)CC4)cc23)C(=O)N1 [Example 9, 1-(5-((1-benzylpiperidin-4-yl)methyl)benzo[d]isoxazol-3-yl)dihydropyrimidine-2,4(1H,3H)-dione] | – | – | 0.056 µM | 91% | 9% |
| CN1CCC(Cc2ccc3onc(N4CCC(=O)NC4=O)c3c2)CC1 [Example 10, 1-(5-((1-methylpiperidin-4-yl)methyl)benzo[d]isoxazol-3-yl)dihydropyrimidine-2,4(1H,3H)-dione] | – | – | 0.045 µM | 90% | 10% |
| O=C1CCN(c2noc3ccc(CC4CCN(CCC5CCCCC5)CC4)cc23)C(=O)N1 [Example 11, 1-(5-((1-(2-cyclohexylethyl)piperidin-4-yl)methyl)benzo[d]isoxazol-3-yl)dihydropyrimidine-2,4(1H,3H)-dione] | – | – | 0.011 µM | 90% | 10% |
| Cc1ccccc1CN1CCC(Cc2ccc3onc(N4CCC(=O)NC4=O)c3c2)CC1 [Example 12, 1-(5-((1-(2-methylbenzyl)piperidin-4-yl)methyl)benzo[d]isoxazol-3-yl)dihydropyrimidine-2,4(1H,3H)-dione] | – | – | 0.044 µM | 90% | 10% |
| O=C1CCN(c2noc3ccc(CC4CCN(CC(F)(F)F)CC4)cc23)C(=O)N1 [Example 13, 1-(5-((1-(2,2,2-trifluoroethyl)piperidin-4-yl)methyl)benzo[d]isoxazol-3-yl)dihydropyrimidine-2,4(1H,3H)-dione] | – | – | 0.039 µM | 89% | 11% |
